The text below walks through data of BindingDB's records for doi:10.1038/nchembio.481 (CGI Pharmaceuticals, 2011).

The structures appear in SMILES notation.

Tyrosine-protein kinase BTK, sequence (Q06187 whole entry): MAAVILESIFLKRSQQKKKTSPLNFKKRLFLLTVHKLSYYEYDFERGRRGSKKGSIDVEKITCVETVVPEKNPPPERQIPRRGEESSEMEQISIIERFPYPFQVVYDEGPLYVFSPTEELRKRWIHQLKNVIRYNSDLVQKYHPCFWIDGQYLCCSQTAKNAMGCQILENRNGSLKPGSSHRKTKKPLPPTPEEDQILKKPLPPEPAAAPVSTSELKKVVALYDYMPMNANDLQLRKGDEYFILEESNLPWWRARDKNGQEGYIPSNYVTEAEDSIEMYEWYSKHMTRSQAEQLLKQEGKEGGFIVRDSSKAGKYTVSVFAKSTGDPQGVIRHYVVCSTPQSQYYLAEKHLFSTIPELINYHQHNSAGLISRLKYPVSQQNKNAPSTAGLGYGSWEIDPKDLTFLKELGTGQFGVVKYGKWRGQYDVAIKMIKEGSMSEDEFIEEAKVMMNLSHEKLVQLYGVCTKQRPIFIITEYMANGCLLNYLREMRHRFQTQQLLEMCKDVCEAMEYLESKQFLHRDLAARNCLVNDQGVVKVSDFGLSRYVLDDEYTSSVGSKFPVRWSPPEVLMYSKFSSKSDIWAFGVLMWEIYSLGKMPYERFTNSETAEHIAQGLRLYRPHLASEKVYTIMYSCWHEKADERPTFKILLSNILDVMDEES

The experiment has as its target Tyrosine-protein kinase BTK (Homo sapiens, UniProt Q06187). The experiment in a line: Btk Kinase Assay. The settings on record: pH 7.5; 23 °C. The text has this:
Biochemical assay using Lanthascreen (human, full-lenght, C-terminal v5-His6 expressed in Sf9 cell) assay from Invitrogen.
Compound `Cc1c(NC(=O)c2ccc(C(C)(C)C)nc2)cccc1-c1cn(C)c(=O)c(Nc2ccc(C(=O)N3CCOCC3)cc2)n1` [6-(tert-Butyl)-N-(2-methyl-3-(4-methyl-6-((4-(morpholine-4-carbonyl)phenyl)amino)-5-oxo-4,5-dihydropyrazin-2-yl)phenyl)nicotinamide, 7] yielded a 50% inhibitory concentration (IC50) of 0.65 µM.
Then `CC(=O)Nc1cccc(-c2cn(C)c(=O)c(Nc3ccc(C(=O)N4CCOCC4)cc3)n2)c1C` [CID46942382], with 2.69 µM; and `Cc1c(NCc2ccc(C(C)(C)C)cc2)cccc1-c1cn(C)c(=O)c(Nc2ccc(C(=O)N3CCOCC3)cc2)n1` [5-(3-((4-(tert-Butyl)benzyl)amino)-2-methylphenyl)-1-methyl-3-((4-(morpholine-4-carbonyl)phenyl)amino)pyrazin-2(1H)-one, 5], with 9.06 µM.
Then `Cc1c(NC(=O)c2cccc(C(C)(C)C)c2)cccc1-c1cn(C)c(=O)c(Nc2ccc(C(=O)N3CCOCC3)cc2)n1` [3-(tert-Butyl)-N-(2-methyl-3-(4-methyl-6-((4-(morpholine-4-carbonyl)phenyl)amino)-5-oxo-4,5-dihydropyrazin-2-yl)phenyl)benzamide, 6], with 3.14 µM; and `Cc1c(N)cccc1-c1cn(C)c(=O)c(Nc2ccc(C(=O)N3CCOCC3)cc2)n1` [5-(3-Amino-2-methylphenyl)-1-methyl-3-((4-(morpholine-4-carbonyl)phenyl)amino)pyrazin-2(1H)-one, 3], with 5.44 µM.
